What was measured:
[1] = molecular target: NaV1.5 (peak sodium current) (Homo sapiens, UniProt Q14524); assay: Inhibition of human NaV1.5 expressed in HEK293 cells assessed as use dependent blocking of cell membrane depolarization-induced peak sodium currents at 1 uM at 0 mV and 3 Hz stimulation at holding potential of -100 mV by whole cell patch clamp Qpatch method; assay type: cell-based; settings: HEK293 cells that express human NaV1.5
Oryctolagus cuniculus [2] = assay: Effect on heart rate in anesthetized New Zealand rabbit ischemia-induced ST segment elevation model at 0.1 to 0.4 mg/kg, iv bolus dose dosed 30 mins before ischemia followed by reperfusion; assay type: ADME, organism-based; settings: in vivo, 0.5 h
Oryctolagus cuniculus [3] = assay: Effect on blood pressure in anesthetized New Zealand rabbit ischemia-induced ST segment elevation model at 0.1 to 0.4 mg/kg, iv bolus dose dosed 30 mins before ischemia followed by reperfusion; assay type: ADME, organism-based; settings: in vivo, 0.5 h
Oryctolagus cuniculus [4] = assay: Anti-ischemic activity in anesthetized New Zealand rabbit heart assessed as reduction in ischemia-induced ST segment elevation at 0.1 to 0.4 mg/kg, iv bolus dose dosed 30 mins before ischemia followed by reperfusion; assay type: functional, organism-based
Oryctolagus cuniculus [5] = assay: Effect on ECG intervals in anesthetized New Zealand rabbit ischemia-induced ST segment elevation model at 0.1 to 0.4 mg/kg, iv bolus dose dosed 30 mins before ischemia followed by reperfusion; assay type: ADME, organism-based; settings: in vivo, 0.5 h
Oryctolagus cuniculus [6] = assay: Anti-ischemic activity in anesthetized New Zealand rabbit heart assessed as reduction in ischemia-induced ST segment elevation by measuring MAPD90_ATX levels at 1 uM plasma concentration at 0.1 to 0.4 mg/kg, iv bolus dose dosed 30 mins before ischemia followed by reperfusion; assay type: functional
Oryctolagus cuniculus [7] = assay: Anti-ischemic activity in anesthetized New Zealand rabbit heart assessed as reduction in ischemia-induced myocardial electrical dysfunction at 0.1 to 0.4 mg/kg, iv bolus dose dosed 30 mins before ischemia followed by reperfusion; assay type: functional, organism-based
[8] = molecular target: Sodium channel protein type 5 subunit alpha (Homo sapiens, UniProt Q14524); assay: Inhibition of human NaV1.5 expressed in HEK293 cells assessed as blocking of tefluthrin-induced late sodium currents at 1 uM using -20 mV voltage steps at holding potential of -120 mV by whole cell patch clamp Qpatch method; assay type: cell-based
Chain of Sodium channel protein type 5 subunit alpha (Q14524 whole entry): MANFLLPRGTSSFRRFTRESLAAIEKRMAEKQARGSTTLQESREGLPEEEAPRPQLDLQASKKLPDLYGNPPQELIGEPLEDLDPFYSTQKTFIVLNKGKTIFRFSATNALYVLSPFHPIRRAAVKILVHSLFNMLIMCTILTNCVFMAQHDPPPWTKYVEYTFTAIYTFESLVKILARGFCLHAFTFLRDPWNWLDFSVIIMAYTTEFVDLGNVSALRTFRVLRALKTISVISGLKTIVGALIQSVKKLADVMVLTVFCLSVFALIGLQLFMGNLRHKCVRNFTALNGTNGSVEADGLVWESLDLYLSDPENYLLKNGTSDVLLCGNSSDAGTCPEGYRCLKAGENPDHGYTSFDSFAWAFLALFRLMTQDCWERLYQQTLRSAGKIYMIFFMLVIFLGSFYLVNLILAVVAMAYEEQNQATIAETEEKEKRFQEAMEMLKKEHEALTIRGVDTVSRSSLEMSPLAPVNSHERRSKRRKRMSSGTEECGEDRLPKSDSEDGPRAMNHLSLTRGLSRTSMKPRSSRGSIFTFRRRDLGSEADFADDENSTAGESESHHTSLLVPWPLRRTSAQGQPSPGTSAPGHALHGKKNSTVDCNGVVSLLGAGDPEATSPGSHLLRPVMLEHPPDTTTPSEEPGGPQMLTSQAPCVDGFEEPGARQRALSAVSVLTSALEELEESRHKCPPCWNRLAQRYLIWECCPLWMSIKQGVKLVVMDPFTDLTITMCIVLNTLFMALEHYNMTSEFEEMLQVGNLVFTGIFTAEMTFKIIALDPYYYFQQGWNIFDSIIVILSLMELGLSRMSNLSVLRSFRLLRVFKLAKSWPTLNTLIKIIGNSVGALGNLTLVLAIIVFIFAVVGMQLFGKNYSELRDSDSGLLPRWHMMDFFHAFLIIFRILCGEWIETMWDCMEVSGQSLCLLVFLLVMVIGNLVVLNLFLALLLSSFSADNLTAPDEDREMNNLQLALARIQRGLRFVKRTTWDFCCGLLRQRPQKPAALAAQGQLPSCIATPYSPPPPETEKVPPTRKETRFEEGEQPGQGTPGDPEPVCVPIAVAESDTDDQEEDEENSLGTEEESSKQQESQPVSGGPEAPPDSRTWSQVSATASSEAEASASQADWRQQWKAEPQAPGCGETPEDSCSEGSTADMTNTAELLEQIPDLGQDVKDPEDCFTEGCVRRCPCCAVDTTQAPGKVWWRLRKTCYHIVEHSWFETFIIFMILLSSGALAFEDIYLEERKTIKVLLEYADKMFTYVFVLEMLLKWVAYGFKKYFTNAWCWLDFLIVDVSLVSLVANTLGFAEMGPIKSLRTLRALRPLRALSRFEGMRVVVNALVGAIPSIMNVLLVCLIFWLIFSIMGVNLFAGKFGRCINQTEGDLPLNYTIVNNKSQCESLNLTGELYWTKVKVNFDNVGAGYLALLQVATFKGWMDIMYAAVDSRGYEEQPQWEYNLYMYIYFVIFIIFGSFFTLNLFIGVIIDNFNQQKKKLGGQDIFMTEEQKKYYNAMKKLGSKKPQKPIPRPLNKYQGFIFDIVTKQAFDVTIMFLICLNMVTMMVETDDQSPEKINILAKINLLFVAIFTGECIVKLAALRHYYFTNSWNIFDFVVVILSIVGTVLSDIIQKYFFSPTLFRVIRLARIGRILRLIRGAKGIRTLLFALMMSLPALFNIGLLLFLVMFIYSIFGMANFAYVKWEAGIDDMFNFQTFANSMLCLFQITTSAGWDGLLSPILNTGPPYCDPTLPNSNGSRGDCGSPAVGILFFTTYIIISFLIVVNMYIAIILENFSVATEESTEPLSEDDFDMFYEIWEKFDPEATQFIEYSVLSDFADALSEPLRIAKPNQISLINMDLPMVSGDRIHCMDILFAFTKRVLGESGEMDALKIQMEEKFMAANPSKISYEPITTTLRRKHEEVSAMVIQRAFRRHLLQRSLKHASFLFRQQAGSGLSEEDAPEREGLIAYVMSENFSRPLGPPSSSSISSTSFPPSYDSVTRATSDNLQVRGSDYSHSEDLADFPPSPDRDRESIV

Chain of NaV1.5 (peak sodium current) (Q14524 whole entry, the tested form may be a part): as the sequence (Q14524 whole entry) above

O=C1c2cc(-c3ccc(C(F)(F)F)cc3F)ccc2OCCN1Cc1ncccn1
inhibition at 1 µM [1]: 10 to 11%

O=C1c2cc(-c3ccc(OC(F)(F)F)cc3)ccc2OCCN1Cc1ncccn1 [ELECLAZINE]
Activity (Oryctolagus cuniculus [2]): Non-Toxic
Activity (Oryctolagus cuniculus [3]): Non-Toxic
inhibition (Oryctolagus cuniculus [4]): Dose-dependent effect
Activity (Oryctolagus cuniculus [5]): Non-Toxic
inhibition (INH) (Oryctolagus cuniculus [6]): -56%
inhibition (Oryctolagus cuniculus [7]): Dose-dependent effect

O=C1c2cc(-c3ccc(C(F)(F)F)cc3)ccc2OCCN1Cc1cn2ccccc2n1
inhibition at 1 µM [8]: 32 to 33%
inhibition (INH) (Oryctolagus cuniculus [6]): -49%

O=C1c2cc(-c3ccc(OC(F)(F)F)cc3)ccc2OCCN1Cn1cc(Cl)cn1
inhibition (INH) (Oryctolagus cuniculus [6]): -23%

O=C1c2cc(-c3ccc(Cl)cc3)ccc2OCCN1Cc1ncccn1
inhibition (INH) (Oryctolagus cuniculus [6]): -69%

O=C1c2cc(-c3ccc(OC(F)(F)F)cc3)ccc2OCCN1Cc1ccc2ccccc2n1
inhibition (INH) (Oryctolagus cuniculus [6]): -10%

O=C1c2cc(-c3ccc(C(F)(F)F)cc3)ccc2OCCN1Cc1ncccn1
Activity (Oryctolagus cuniculus [2]): Non-Toxic
Activity (Oryctolagus cuniculus [3]): Non-Toxic
inhibition (Oryctolagus cuniculus [4]): Dose-dependent effect
Activity (Oryctolagus cuniculus [5]): Non-Toxic
inhibition (INH) (Oryctolagus cuniculus [6]): -62%
inhibition (Oryctolagus cuniculus [7]): Dose-dependent effect

COc1cc(OC)nc(CN2CCOc3ccc(-c4ccc(OC(F)(F)F)cc4)cc3C2=O)n1
inhibition (INH) (Oryctolagus cuniculus [6]): -27%

CC(C)(C)c1ccc(-c2ccc3c(c2)C(=O)N(Cc2ncccn2)CCO3)cc1
inhibition (INH) (Oryctolagus cuniculus [6]): -50%

Cc1ccnc(CN2CCOc3cnc(-c4ccc(OC(F)(F)F)cc4)cc3C2=O)n1
inhibition (INH) (Oryctolagus cuniculus [6]): -34%

O=C1c2cc(C#Cc3ccc(C(F)(F)F)cc3)ccc2OCCN1Cc1ncccn1
inhibition (INH) (Oryctolagus cuniculus [6]): -49%

O=C(c1ncccn1)N1CCOc2ccc(-c3ccc(OC(F)(F)F)cc3)cc2C1
inhibition (INH) (Oryctolagus cuniculus [6]): -47%

O=C1c2cc(C#Cc3ccc(OC(F)(F)F)cc3)ccc2OCCN1Cc1ncccn1
inhibition (INH) (Oryctolagus cuniculus [6]): -25%
